Experimental data reported in patent US20230139593A1, “TREATMENT OF DISORDERS ASSOCIATED WITH OXIDATIVE STRESS AND COMPOUNDS FOR SAME” (The University of Adelaide, priority 2020, published 2023).
Counter-ions that a name gives are not always drawn.

What was measured:
[1] = system: NRF2/ARE; assay: NRF2/ARE responsive luciferase reporter assay in HEK293 cells; format: cell-based; conditions: 16 h; for NRF2 activity relative to MMF: 0-100 μM; for NRF2 activity in the presence of H2O2 or ONOO− compared to media control: 10 μM H2O2 or 10 μM ONOO−, 0-100 μM compound
Experimental: (§1) NRF2/ARE responsive luciferase reporter HEK293 cells (Signosis, Santa Clara, USA) were seeded at 1×10^5 cells/well in 48-well plates (Corning, Tewksbury, USA) in supplemented Dulbecco's Modified Eagle Medium (DMEM) containing 4.5 g/L glucose (HyClone, Pittsburgh, USA) (10% fetal bovine serum (FBS) (ThermoFisher Scientific, Waltham, USA) and 1% penicillin/streptomycin (Gibco, Waltham, USA)) and cultured overnight at 37° C., 5% CO2, in a humidified environment. The next morning, the media was replaced with supplemented DMEM (1% FBS (ThermoFisher Scientific) and 1% penicillin/streptomycin (Gibco)). Cells were then treated with a concentration range of each example of compounds described in the invention or monomethyl fumarate (0-100 μM), together with 10 μM hydrogen peroxide (H2O2) (Sigma Aldrich, St Louis, USA), 10 μM peroxynitrite (PN) (Sigma Aldrich), or supplemented media (negative control). tert-Butylhydroquinone (tBHQ; 10 μM) (Sigma-Aldrich) was used as positive control. Each condition was run in triplicate and observations confirmed over at least two additional replications.
After 16 h of incubation with examples of compounds described in the invention and ROS/RNS, cells were washed gently with 500 μL PBS (Sigma-Aldrich) and then incubated in 40 μL passive lysis buffer (Promega, Madison, USA) at room temperature. After 20 mins, 30 μL was transferred from each well to a 96-well clear-bottom, white-wall plate (Corning). Luciferase substrate (Signosis; 150 μL) was added to each well and gently mixed. Luminesence was immediately read on a Synergy HTX multi-mode microplate reader (BioTek, Winooski, USA).
Differences between in vitro concentration-response relationships were determined by comparing the slopes of fitted functions for shared parameters. Linear models were selected as the pharmacologically-relevant concentrations tested were within the linear range of the concentration-response functions. Mechanical allodynia was analyzed as the interpolated 50% thresholds (absolute threshold). One-way ANOVA was used to confirm that there were no baseline differences in absolute thresholds or dynamic scores between treatment groups. Differences between treatment groups for behavior were determined using repeated measures two-way ANOVA, followed by Tukey's or Sidaks post hoc tests. Biochemical data were analyzed by one- or two-way ANOVA, followed by Tukey's post hoc tests. Results are expressed as mean±standard deviation (SD). P<0.05 was considered statistically significant.

[2] = system: spared nerve injury (SNI) model of neuropathic pain; assay: Tactile allodynia (von Frey test) after spared nerve injury; format: in vivo, mice; conditions: for tactile allodynia: 350 μmol/kg oral, daily for 3 days, SNI mice, ipsilateral paw
Experimental: Pathogen-free adult male and female C57BL/6J mice (8 weeks old on arrival; The Jackson Laboratory, Bar Harbor, USA) were used. Mice were housed five per cage in a light- and temperature-controlled room (12:12-h light-dark cycle, light on at 7:00 AM) with food and water available ad libitum. All procedures were approved by the MD Anderson Cancer Center Animal Care and Use Committee. SNI was performed under inhaled isoflurane anesthesia. The tibial and common peroneal nerves were isolated, tightly ligated with 6-0 silk, and transected immediately distal to the ligation. The sural nerve was left intact. Animals were monitored post-operatively until fully ambulatory prior to return to their home cage. Compounds were suspended with methylcellulose (viscosity 15 cP, 2% w/v in water;) and administered by oral gavage. For SNI anti-nociception, compounds were administered for 3 days (350 μmol/kg/day), beginning 7 days after SNI, and continuing for 3 (reflex tests) or 7 days (conditioned place preference tests). For leukopenia assessment, compounds were administered to naïve mice for 10 days (350 μmol/kg/day). Equivolume methylcellulose (2% w/v) was used as vehicle control for all compounds. An independent investigator dosed the mice in order to maintain blinding to treatment groups for the other investigators who performed the behavioral testing. Testing was conducted blind with respect to group assignment. […] Tactile allodynia was measured using the von Frey test. The 50% paw withdrawal threshold was determined using the “up-down” method. Differences between in vitro concentration-response relationships were determined by comparing the slopes of fitted functions for shared parameters. […] Mechanical allodynia was analyzed as the interpolated 50% thresholds (absolute threshold). […] Differences between treatment groups for behavior were determined using repeated measures two-way ANOVA, followed by Tukey's or […] post hoc tests. Biochemical data were analyzed by one- or two-way ANOVA, followed by Tukey's post hoc tests. Results are expressed as mean±standard deviation (SD). […]

[3] = system: spared nerve injury (SNI) model of neuropathic pain; assay: Dynamic allodynia (paintbrush stroking) after spared nerve injury; format: in vivo; conditions: 350 μmol/kg oral, daily for 3 days, SNI mice, ipsilateral paw
Experimental: Pathogen-free adult male and female C57BL/6J mice (8 weeks old on arrival; The Jackson Laboratory, Bar Harbor, USA) were used. Mice were housed five per cage in a light- and temperature-controlled room (12:12-h light-dark cycle, light on at 7:00 AM) with food and water available ad libitum. All procedures were approved by the MD Anderson Cancer Center Animal Care and Use Committee. SNI was performed under inhaled isoflurane anesthesia. The tibial and common peroneal nerves were isolated, tightly ligated with 6-0 silk, and transected immediately distal to the ligation. The sural nerve was left intact. Animals were monitored post-operatively until fully ambulatory prior to return to their home cage. […] Dynamic mechanical hypersensitivity was measured by light stroking (velocity is 2 cm/s) of the external lateral side of the injured hind paw in the direction from heel to toe with a paintbrush. The paw withdrawal response was scored according to the following criteria, score=0: walking away or occasionally very brief paw lifting […]; score=1: sustained lifting (>2 s) of the stimulated paw toward the body; score=2: a strong lateral lifting above the level of the body; score=3: flinching or licking of the affected paw. […] Differences between in vitro concentration-response relationships were determined by comparing the slopes of fitted functions for shared parameters. […]

[4] = system: spared nerve injury (SNI) model of neuropathic pain; assay: Conditioned place preference assay (spontaneous pain) after spared nerve injury; format: in vivo; conditions: 350 μmol/kg oral, daily for 7 days, nerve-injured mice
Experimental: Pathogen-free adult male and female C57BL/6J mice (8 weeks old on arrival; The Jackson Laboratory, Bar Harbor, USA) were used. Mice were housed five per cage in a light- and temperature-controlled room (12:12-h light-dark cycle, light on at 7:00 AM) with food and water available ad libitum. All procedures were approved by the MD Anderson Cancer Center Animal Care and Use Committee. SNI was performed under inhaled isoflurane anesthesia. The tibial and common peroneal nerves were isolated, tightly ligated with 6-0 silk, and transected immediately distal to the ligation. The sural nerve was left intact. Animals were monitored post-operatively until fully ambulatory prior to return to their home cage. Compounds were suspended with methylcellulose (viscosity 15 cP, 2% w/v in water;) and administered by oral gavage. For SNI anti-nociception, compounds were administered for 3 days (350 μmol/kg/day), beginning 7 days after SNI, and continuing for 3 (reflex tests) or 7 days (conditioned place preference tests). For leukopenia assessment, compounds were administered to naïve mice for 10 days (350 μmol/kg/day). Equivolume methylcellulose (2% w/v) was used as vehicle control for all compounds. An independent investigator dosed the mice in order to maintain blinding to treatment groups for the other investigators who performed the behavioral testing. […] The time spent in the light chamber was recorded. […]

[5] = measured, Arch Dermatol Res. 2010, 302(7), 531-8; cited from earlier work
[6] = system: NRF2/ARE luciferase reporter HEK293 cells; assay: Cytotoxicity in the reporter cell assay; format: cell-based
Experimental: as §1

[7] = system: leukocytes; assay: Absolute leukocyte count in naive mice; format: in vivo; conditions: 350 μmol/kg oral, daily for 10 days
Experimental: Compounds were suspended with methylcellulose (viscosity 15 cP, 2% w/v in water;) and administered by oral gavage. For SNI anti-nociception, compounds were administered for 3 days (350 μmol/kg/day), beginning 7 days after SNI, and continuing for 3 (reflex tests) or 7 days (conditioned place preference tests). For leukopenia assessment, compounds were administered to naïve mice for 10 days (350 μmol/kg/day). Equivolume methylcellulose (2% w/v) was used as vehicle control for all compounds. An independent investigator dosed the mice in order to maintain blinding to treatment groups for the other investigators who performed the behavioral testing.
Leukocytes from cardiac blood were stained with Turk's solution according to manufacturer instructions, and manually counted on a hemocytometer by an experimenter who was blinded to treatment conditions.

Structure (SMILES)	NRF2 activity relative to MMF [1]	NRF2 activity in the presence of H2O2 or ONOO− compared to media control [1]	tactile allodynia [2]	dynamic allodynia [3]	spontaneous pain: preference for the retigabine-paired light chamber [4]	also measured
COC(=O)/C=C/C(=O)C(=O)c1ccccc1 [Example D, methyl (2E)-4,5-dioxo-5-phenylpent-2-enoate]	at lower levels than MMF	increased NRF2 activity in the presence of H2O2 or ONOO^−	–	–	–	–
COC(=O)/C=C/C(=O)C(=O)O [Example J, (3E)-5-methoxy-2,5-dioxopent-3-enoic acid]	–	–	reversed	reversed	–	–
COC(=O)/C=C/C(=O)OCCN1C(=O)CCC1=O [diroximel fumarate, reference compound]	–	–	–	–	did not develop a preference for the retigabine-paired light chamber	–
COC(=O)/C=C/C(=O)O [MMF, monomethyl fumarate]	–	–	–	–	–	pKa [5]: 3.63
COC(=O)/C=C/C(=O)C(=O)OC [Example A, 1,5-dimethyl (2E)-4-oxopent-2-enedioate]	–	increased NRF2 activity in the presence of H2O2 or ONOO^−	reversed	reversed	did not develop a preference for the retigabine-paired light chamber	toxicity in the concentration range tested ([6]; 0-100 μM): no toxicity in the concentration range tested; efficacy on tactile and dynamic allodynia relative to diroximel fumarate ([2]; 350 μmol/kg oral each, 3 days, both measures): greater efficacy than diroximel fumarate; absolute leukocyte count [7]: did not cause a decline in absolute leukocyte count
COC(=O)/C=C/C(=O)C(=O)NCc1ccccc1 [Example C, methyl (2E)-4-(benzylcarbamoyl)-4-oxobut-2-enoate]	activated NRF2 to a greater extent than MMF	did not selectively increase NRF2 activity	–	–	–	cytotoxic concentration [6]: above 50 μM
